Data published in patent US20250163051A1, “PYRIMIDO AROMATIC RING COMPOUND AND USE THEREOF IN DRUG” (SUNSHINE LAKE PHARMA CO., LTD., priority 2022, published 2025).

Columns and labels:
hTLR8 = target: T1, hTLR8 (Homo sapiens, UniProt Q9NR97); experiment: Agonistic activity on human TLR8 in HEK-Blue hTLR8 cells (QUANTI-Blue); type: cell-based; details: 24 h incubation, OD650, read-out: hTLR 8 EC50
T1 construct: expressed in transfected cells; host or cells: HEK-Blue hTLR8 cells
T1 sequence (Q9NR97 27-1041): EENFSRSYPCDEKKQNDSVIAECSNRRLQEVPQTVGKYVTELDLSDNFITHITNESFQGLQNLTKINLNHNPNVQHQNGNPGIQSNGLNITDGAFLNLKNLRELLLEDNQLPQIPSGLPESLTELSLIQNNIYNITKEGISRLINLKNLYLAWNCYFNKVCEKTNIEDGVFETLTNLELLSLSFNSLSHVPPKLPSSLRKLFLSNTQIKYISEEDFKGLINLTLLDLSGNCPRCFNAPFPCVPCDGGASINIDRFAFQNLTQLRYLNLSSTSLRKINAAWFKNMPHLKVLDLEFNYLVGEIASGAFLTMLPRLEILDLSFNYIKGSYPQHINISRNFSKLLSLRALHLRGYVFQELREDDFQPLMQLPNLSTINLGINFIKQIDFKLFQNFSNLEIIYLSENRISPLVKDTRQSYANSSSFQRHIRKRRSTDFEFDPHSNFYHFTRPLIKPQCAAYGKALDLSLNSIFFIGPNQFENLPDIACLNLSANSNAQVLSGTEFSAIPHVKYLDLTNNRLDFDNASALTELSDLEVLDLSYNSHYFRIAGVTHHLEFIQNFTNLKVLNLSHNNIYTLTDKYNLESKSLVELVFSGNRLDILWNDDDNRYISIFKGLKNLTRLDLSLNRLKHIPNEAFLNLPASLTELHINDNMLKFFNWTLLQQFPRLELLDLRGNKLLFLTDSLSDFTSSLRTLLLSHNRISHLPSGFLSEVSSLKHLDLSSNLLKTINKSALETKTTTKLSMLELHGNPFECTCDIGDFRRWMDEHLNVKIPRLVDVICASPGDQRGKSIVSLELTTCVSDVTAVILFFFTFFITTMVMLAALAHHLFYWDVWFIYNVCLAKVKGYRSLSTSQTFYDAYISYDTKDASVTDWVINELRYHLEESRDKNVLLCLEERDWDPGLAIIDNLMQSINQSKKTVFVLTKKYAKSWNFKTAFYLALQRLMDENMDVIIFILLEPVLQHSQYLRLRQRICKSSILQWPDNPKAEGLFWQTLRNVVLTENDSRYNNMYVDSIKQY
Protocol: (§1) Purpose: HEK-Blue™ hTLR7 and HEK-Blue™ hTLR8 cells were used to detect the agonist and cytotoxic activities of compounds against hTLR7 and hTLR8.
(§2) The experimental steps were as shown below: • 1) Preparation of compound: The compound was prepared into a 20 mM stock solution with DMSO, and then the stock solution was diluted 3-fold in a gradient and added to a 96-well plate, for a total of 10 concentrations, with duplicate wells for each concentration. For negative control wells, 0.5 μL DMSO was added to each well. The final DMSO concentration was 0.5%. • 2) HEK-Blue™ hTLR7 or HEK-Blue™ hTLR8 cells were suspended in culture medium and then seeded into 96-well plates containing compounds at a cell count of 50,000 per well. The compounds and cells were incubated for 24 h at 37° C., 5% Co2. • 3) QUANTI-Blue was used for the detection solution: to a mixture of 1 mL of QB reagent and 1 mL of QB buffer was added 98 mL of sterile water, the mixture was mixed and dissolved, and then placed at room temperature for 10 min. • 4) Activity test of the compound: 20 μL of the culture supernatant in step 2) was added to each well of a 96-well plate containing 180 μL of QUANTI-Blue detection solution. After incubation at 37° C. for 1 h, the absorbance at 650 nm (OD650) was detected using a multifunctional microplate reader Flextation III. • 5) Detection of cell activity: The chemiluminescent signal (RLU) was detected using the multifunctional microplate reader Flextation III according to the instructions of Celltiter-Glo. • 6) Data analysis
(§3) Activity of compounds: OD650 values were analyzed using GraphPad Prism software, and the compound dose-effect curves were fitted to calculate the EC50 values of the compounds.

hTLR7 = target: T2, hTLR7 (Homo sapiens, UniProt Q9NYK1); experiment: Agonistic activity on human TLR7 in HEK-Blue hTLR7 cells (QUANTI-Blue); type: cell-based; details: 24 h incubation, OD650, read-out: hTLR 7 EC50
T2 construct: expressed in transfected cells; host or cells: HEK-Blue hTLR7 cells
T2 sequence (Q9NYK1 27-1049): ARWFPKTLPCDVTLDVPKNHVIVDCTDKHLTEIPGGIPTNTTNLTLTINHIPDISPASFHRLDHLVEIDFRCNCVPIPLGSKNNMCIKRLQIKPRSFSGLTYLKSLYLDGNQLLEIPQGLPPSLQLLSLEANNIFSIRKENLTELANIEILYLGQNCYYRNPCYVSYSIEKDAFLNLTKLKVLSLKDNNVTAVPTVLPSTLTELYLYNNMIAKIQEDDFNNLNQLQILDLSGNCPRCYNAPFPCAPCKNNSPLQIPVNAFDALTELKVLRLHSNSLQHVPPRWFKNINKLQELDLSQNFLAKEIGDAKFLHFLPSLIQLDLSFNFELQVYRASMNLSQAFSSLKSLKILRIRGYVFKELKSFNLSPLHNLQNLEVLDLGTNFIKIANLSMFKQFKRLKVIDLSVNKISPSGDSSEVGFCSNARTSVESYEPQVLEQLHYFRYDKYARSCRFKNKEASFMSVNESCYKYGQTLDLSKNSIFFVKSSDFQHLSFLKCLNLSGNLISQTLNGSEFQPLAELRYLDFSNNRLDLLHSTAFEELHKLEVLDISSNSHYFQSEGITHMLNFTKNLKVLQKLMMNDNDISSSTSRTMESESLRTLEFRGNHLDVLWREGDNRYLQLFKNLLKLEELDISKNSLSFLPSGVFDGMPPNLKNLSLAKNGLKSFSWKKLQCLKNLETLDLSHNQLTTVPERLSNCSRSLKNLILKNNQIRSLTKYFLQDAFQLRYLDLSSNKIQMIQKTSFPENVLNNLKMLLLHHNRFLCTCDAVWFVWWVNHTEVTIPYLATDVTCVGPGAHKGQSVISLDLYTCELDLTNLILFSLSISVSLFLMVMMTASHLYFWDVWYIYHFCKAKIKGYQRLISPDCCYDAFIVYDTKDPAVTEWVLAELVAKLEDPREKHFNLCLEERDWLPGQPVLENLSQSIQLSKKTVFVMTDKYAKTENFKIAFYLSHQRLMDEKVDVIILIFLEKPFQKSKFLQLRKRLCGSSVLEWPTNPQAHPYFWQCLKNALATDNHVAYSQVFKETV
Protocol: as §1, §2, §3

[1] = Cell toxicity (Celltiter-Glo) in HEK-Blue hTLR8 cells; details: human

## CCCC[C@](C)(CO)Nc1nc(N)nc2cc(-c3cc(=O)[nH]cc3CN3CCN(C)CC3)cnc12 [Example 22]
hTLR8
  EC50: 980 nM
hTLR7
  EC50: > 100000 nM
[1]
  CC50 at 24 h: > 100000 nM

## CCCC[C@](C)(CO)Nc1nc(N)nc2cc(-c3cc(=O)n(C)cc3CNCCOC)ccc12 [Example 61, (R)-4-(2-Amino-4-((1-hydroxy-2-methylhexan-2-yl)amino)quinazolin-7-yl)-5-(((2-methoxyethyl)amino)methyl)-1-methylpyridin-2(1H)-one]
hTLR8
  EC50: 418 nM
hTLR7
  EC50: > 100000 nM
[1]
  CC50 at 24 h: > 100000 nM

## C#CCCN(C)Cc1cn(C)c(=O)cc1-c1cnc2c(N[C@@](C)(CO)CCCC)nc(N)nc2c1 [Example 6]
hTLR8
  EC50: 3900 nM
hTLR7
  EC50: > 100000 nM

## C=CCCN(CC)Cc1c[nH]c(=O)cc1-c1cnc2c(N[C@@](C)(CO)CCCC)nc(N)nc2c1 [Example 18]
hTLR8
  EC50: 132 nM
hTLR7
  EC50: > 100000 nM
[1]
  CC50 at 24 h: > 100000 nM

## CCCC[C@](C)(CO)Nc1nc(N)nc2cc(-c3cc(=O)[nH]cc3CN3CCCCC3)ccc12 [Example 17]
hTLR8
  EC50: 220 nM
hTLR7
  EC50: > 100000 nM
[1]
  CC50 at 24 h: > 100000 nM

## CCCC[C@](C)(CO)Nc1nc(N)nc2cc(-c3cc(=O)[nH]cc3CN3CCN(C(C)(C)C)CC3)cnc12 [Example 23]
hTLR8
  EC50: 291 nM
hTLR7
  EC50: > 100000 nM
[1]
  CC50 at 24 h: > 100000 nM

## CCCC[C@](C)(CO)Nc1nc(N)nc2cc(-c3cc(=O)[nH]cc3CN3CCOCC3)cnc12 [Example 24]
hTLR8
  EC50: 239 nM
hTLR7
  EC50: > 100000 nM
[1]
  CC50 at 24 h: > 100000 nM

## CCCC[C@](C)(CO)Nc1nc(N)nc2cc(-c3cc(=O)[nH]cc3CNCCOC)ccc12 [Example 57, (R)-4-(2-Amino-4-((1-hydroxy-2-methylhexan-2-yl)amino)quinazolin-7-yl)-5-(((2-methoxyethyl)amino)methyl)pyridin-2(1H)-one]
hTLR8
  EC50: 1860 nM
hTLR7
  EC50: > 100000 nM
[1]
  CC50 at 24 h: > 100000 nM

## C=CCCN(C)C(=O)c1c[nH]c(=O)cc1-c1cnc2c(N[C@@](C)(CO)CCCC)nc(N)nc2c1 [Example 38, (R)-4-(2-Amino-4-((1-hydroxy-2-methylhexan-2-yl)amino)pyrido[3,2-d]pyrimidin-7-yl)-N-(but-3-en-1-yl)-N-methyl-6-oxo-1,6-dihydropyridine-3-carboxamide]
hTLR8
  EC50: 2990 nM
hTLR7
  EC50: > 100000 nM
[1]
  CC50 at 24 h: > 100000 nM

## C=CCCN(C)Cc1c[nH]c(=O)cc1-c1cnc2c(N[C@@H](CO)CCCC)nc(N)nc2c1 [Example 42, (R)-4-(2-Amino-4-((1-hydroxyhexan-2-yl)amino)pyrido[3,2-d]pyrimidin-7-yl)-5-((but-3-en-1-yl (methyl)amino)methyl)pyridin-2(1H)-one]
hTLR8
  EC50: 595 nM
hTLR7
  EC50: > 100000 nM
[1]
  CC50 at 24 h: > 100000 nM

## CCCC[C@](C)(CO)Nc1nc(N)nc2cc(-c3cc(=O)[nH]cc3CN3CCCCC3)cnc12 [Example 16]
hTLR8
  EC50: 104 nM
hTLR7
  EC50: 65800 nM

## CCCC[C@](C)(CO)Nc1nc(N)nc2cc(-c3cc(=O)[nH]cc3CN(C)CCc3ccccc3)ccc12 [Example 29, (R)-4-(2-Amino-4-((1-hydroxy-2-methylhexan-2-yl)amino)quinazolin-7-yl)-5-((methyl(phenethyl)amino)methyl)pyridin-2(1H)-one]
hTLR8
  EC50: 267 nM
hTLR7
  EC50: 23200 nM

## C=CCCN(C)Cc1cn(C)c(=O)cc1-c1cnc2c(N[C@@](C)(CO)CCCC)nc(N)nc2c1 [Example 7]
hTLR8
  EC50: 315 nM
hTLR7
  EC50: > 100000 nM
[1]
  CC50 at 24 h: > 100000 nM

## CCCC[C@](C)(CO)Nc1nc(N)nc2cc(-c3cc(=O)[nH]cc3CN(C)CCC3CC3)cnc12 [Example 12]
hTLR8
  EC50: 19 nM
hTLR7
  EC50: 50800 nM

## C=CCCN(CCC=C)Cc1c[nH]c(=O)cc1-c1ccc2c(N[C@@](C)(CO)CCCC)nc(N)nc2c1 [Example 31]
hTLR8
  EC50: 209 nM
hTLR7
  EC50: 56700 nM

## C=CCCN(CCC=C)Cc1cn(C)c(=O)cc1-c1cnc2c(N[C@@](C)(CO)CCCC)nc(N)nc2c1 [Example 3]
hTLR8
  EC50: 1460 nM
hTLR7
  EC50: > 100000 nM

## CCCC[C@](C)(CO)Nc1nc(N)nc2cc(-c3cc(=O)[nH]cc3CN(C)CCc3ccccc3)cnc12 [Example 11]
hTLR8
  EC50: 1650 nM

## CCCC[C@](C)(CO)Nc1nc(N)nc2cc(-c3cc(=O)n(C)cc3CN(C)CCc3ccccc3)cnc12 [Example 1, (R)-4-(2-Amino-4-((1-hydroxy-2-methylhexan-2-yl)amino)pyrido[3,2-d]pyrimidin-7-yl)-1-methyl-5-((methyl(phenethyl)amino)methyl)pyridin-2(1H)-one]
hTLR8
  EC50: 1820 nM
hTLR7
  EC50: 73000 nM

## C=CCCN(C)Cc1cn(C2CCN(C)CC2)c(=O)cc1-c1cnc2c(N[C@@](C)(CO)CCCC)nc(N)nc2c1 [Example 37, (R)-4-(2-Amino-4-((1-hydroxy-2-methylhexan-2-yl)amino)pyrido[3,2-d]pyrimidin-7-yl)-5-((but-3-en-1-yl(methyl)amino)methyl)-1-(1-methylpiperidin-4-yl)pyridin-2(1H)-one]
hTLR8
  EC50: 397 nM
hTLR7
  EC50: > 100000 nM

## CCCCN(C)Cc1c[nH]c(=O)cc1-c1cnc2c(N[C@@](C)(CO)CCCC)nc(N)nc2c1 [Example 69, 4-(2-Amino-4-((1-hydroxy-2-methylhexan-2-yl)amino)pyrido[3,2-d]pyrimidin-7-yl)-5-((butyl(methyl)amino)methyl)pyridin-2(1H)-one]
hTLR8
  EC50: 23 nM
hTLR7
  EC50: 12000 nM

## CCCC[C@](C)(CO)Nc1nc(N)nc2cc(-c3cc(=O)[nH]cc3CN3CCC(F)(F)CC3)cnc12 [Example 26]
hTLR8
  EC50: 845 nM
hTLR7
  EC50: 54600 nM

## CCCCN(CCCC)Cc1c[nH]c(=O)cc1-c1ccc2c(N[C@@](C)(CO)CCCC)nc(N)nc2c1 [Example 32]
hTLR8
  EC50: 399 nM
hTLR7
  EC50: 47200 nM

## CCCC[C@](C)(CO)Nc1nc(N)nc2cc(-c3cc(=O)n(C)cc3CN(C)CCC3CC3)cnc12 [Example 2]
hTLR8
  EC50: 100 nM
hTLR7
  EC50: > 100000 nM

## CCCC[C@](C)(CO)Nc1nc(N)nc2cc(-c3cc(=O)[nH]cc3CN3CCNCC3)cnc12 [Example 15]
[1]
  CC50 at 24 h: > 100000 nM

## CCCC[C@H](CO)Nc1nc(N)nc2cc(-c3cc(=O)[nH]cc3CN(C)CCCC)cnc12 [Example 43, (R)-4-(2-Amino-4-((1-hydroxyhexan-2-yl)amino)pyrido[3,2-d]pyrimidin-7-yl)-5-((butyl(methyl)amino)methyl)pyridin-2(1H)-one]
[1]
  CC50 at 24 h: > 100000 nM

## CCCCN(C)Cc1c[nH]c(=O)cc1-c1cnc2c(N[C@](C)(CCCC)COC)nc(N)nc2c1 [Example 53, (R)-4-(2-Amino-4-((1-methoxy-2-methylhexan-2-yl)amino)pyrido[3,2-d]pyrimidin-7-yl)-5-((butyl(methyl)amino)methyl)pyridin-2(1H)-one]
hTLR8
  EC50: 680 nM

## CCCCN(CCCC)Cc1cn(C)c(=O)cc1-c1cnc2c(N[C@@](C)(CO)CCCC)nc(N)nc2c1 [Example 4]
hTLR8
  EC50: 1070 nM
hTLR7
  EC50: > 100000 nM
